Data taken from patent US20100267561A1, “HERBICIDAL PYRIDAZINONE DERIVATIVES” (priority 2007, published 2010).
Like-named read-outs stand apart in the source and are kept apart here.

Columns and labels:
Type in all cases: in vivo
[1] = system: giant foxtail (Setaria faberi); test: Test A pre-/postemergence plant response; details: Setaria faberi, 240 h, 1000 g ai/ha, read-out: Plant response rating, Foxtail, Giant
In short: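 Scores reflect visual plant injury relative to untreated controls on a 0–100 scale, recorded approximately 10 days after simultaneous preemergence soil spraying and postemergence spraying of one- to two-leaf seedlings grown in loam–sand.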

[2] = system: velvetleaf (Abutilon theophrasti); test: Test B pre-/postemergence plant response; details: Abutilon theophrasti, read-out: Plant response rating, Velvetleaf; for pest or weed control at 31 g/ha: 31 g ai/ha, 100 complete control; for pest or weed control at 62 g/ha: 62 g ai/ha; for pest or weed control at 62 g/ha / pest or weed control at 125 g/ha / pest or weed control at 250 g/ha: scale 0 to 100; for pest or weed control at 125 g/ha: 125 g ai/ha; for pest or weed control at 250 g/ha: 250 g ai/ha
In short: (§1)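 Seeds were sown and sprayed preemergence, while plants at 2 to 18 cm (1- to 4-leaf stage) got postemergence sprays. Compounds were formulated in a non-phytotoxic solvent mixture with surfactant. After 13 to 15 days in a greenhouse, injury was rated visually against untreated controls, 0 (no effect) to 100 (complete control).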

[3] = system: giant foxtail (Setaria faberii); test: Test B pre-/postemergence plant response; details: Setaria faberi, read-out: Plant response rating, Foxtail, Giant; for pest or weed control at 31 g/ha: 31 g ai/ha, 100 complete control; for pest or weed control at 62 g/ha: 62 g ai/ha; for pest or weed control at 62 g/ha / pest or weed control at 125 g/ha / pest or weed control at 250 g/ha: scale 0 to 100; for pest or weed control at 125 g/ha: 125 g ai/ha; for pest or weed control at 250 g/ha: 250 g ai/ha
In short: as §1

[4] = system: blackgrass (Alopecurus myosuroides); test: Test B pre-/postemergence plant response; details: for pest or weed control at 31 g/ha: 31 g ai/ha, 100 complete control; for pest or weed control at 62 g/ha: 62 g ai/ha; for pest or weed control at 125 g/ha: 125 g ai/ha
In short: as §1

[5] = system: downy bromegrass (Bromus tectorum); test: Test B pre-/postemergence plant response; details: Bromus tectorum, read-out: Plant response rating, Bromegrass, Downy; for pest or weed control at 31 g/ha: 31 g ai/ha, 100 complete control; for pest or weed control at 62 g/ha: 62 g ai/ha; for pest or weed control at 125 g/ha: 125 g ai/ha; for pest or weed control at 250 g/ha: 250 g ai/ha
In short: as §1

[6] = system: johnsongrass (Sorghum halepense); test: Test B pre-/postemergence plant response; details: Sorghum halepense, read-out: Plant response rating, Johnsongrass; for pest or weed control at 31 g/ha: 31 g ai/ha, 100 complete control; for pest or weed control at 62 g/ha: 62 g ai/ha; for pest or weed control at 62 g/ha / pest or weed control at 125 g/ha / pest or weed control at 250 g/ha: scale 0 to 100; for pest or weed control at 125 g/ha: 125 g ai/ha; for pest or weed control at 250 g/ha: 250 g ai/ha
In short: as §1

[7] = system: pigweed (Amaranthus retroflexus); test: Test B pre-/postemergence plant response; details: Amaranthus retroflexus, read-out: Plant response rating, Pigweed; for pest or weed control at 62 g/ha: 62 g ai/ha; for pest or weed control at 62 g/ha / pest or weed control at 125 g/ha / pest or weed control at 250 g/ha: scale 0 to 100; for pest or weed control at 125 g/ha: 125 g ai/ha; for pest or weed control at 250 g/ha: 250 g ai/ha
In short: as §1

[8] = system: wheat (Triticum aestivum); test: Test B pre-/postemergence plant response; details: Triticum aestivum, read-out: Plant response rating, Wheat; for plant injury at 31 g/ha: 31 g ai/ha, 100 complete control; for plant injury at 62 g/ha: 62 g ai/ha; for plant injury at 62 g/ha / plant injury at 125 g/ha / plant injury at 250 g/ha: scale 0 to 100; for plant injury at 125 g/ha: 125 g ai/ha; for plant injury at 250 g/ha: 250 g ai/ha
In short: as §1

[9] = system: bermudagrass (Cynodon dactylon); test: Test B pre-/postemergence plant response; details: for pest or weed control at 31 g/ha: 31 g ai/ha, 100 complete control; for pest or weed control at 62 g/ha: 62 g ai/ha; for pest or weed control at 125 g/ha: 125 g ai/ha
In short: as §1

[10] = system: goosegrass (Eleusine indica); test: Test B pre-/postemergence plant response; details: Eleusine indica, read-out: Plant response rating, Goosegrass; for pest or weed control at 31 g/ha: 31 g ai/ha, 100 complete control; for pest or weed control at 62 g/ha: 62 g ai/ha; for pest or weed control at 62 g/ha / pest or weed control at 125 g/ha / pest or weed control at 250 g/ha: scale 0 to 100; for pest or weed control at 125 g/ha: 125 g ai/ha; for pest or weed control at 250 g/ha: 250 g ai/ha
In short: as §1

soybean (Glycine max) = test: Test B pre-/postemergence plant response; details: Glycine max, read-out: Plant response rating, Soybean; for plant injury at 31 g/ha: 31 g ai/ha, 100 complete control; for plant injury at 250 g/ha: 250 g ai/ha
In short: as §1

[11] = system: common (oilseed) sunflower (Helianthus annuus); test: Test B pre-/postemergence plant response; details: Helianthus annuus, pre-emergence, Preemergence, read-out: Plant response rating, Sunflower
In short: as §1

[12] = post-emergence, Postemergence, scale 0 to 100, 0 no effect
[13] = pre-emergence, Preemergence, 0 to 100 scale, 0 no effect
[14] = 250 g ai/ha, preemergence, 0-100 scale
[15] = Alopecurus myosuroides, post-emergence, Postemergence, scale 0 to 100, read-out: Plant response rating, Blackgrass
[16] = Alopecurus myosuroides, pre-emergence, Preemergence, scale 0 to 100, read-out: Plant response rating, Blackgrass
[17] = post-emergence, Postemergence, scale 0 to 100
[18] = pre-emergence, Preemergence, scale 0 to 100
[19] = Cynodon dactylon, post-emergence, Postemergence, scale 0 to 100, read-out: Plant response rating, Bermudagrass
[20] = Cynodon dactylon, pre-emergence, Preemergence, scale 0 to 100, read-out: Plant response rating, Bermudagrass

Cc1cc(-c2ccc(C(F)(F)F)cc2)nn1-c1c(O)cnn(C)c1=O [Compound 1, 5-hydroxy-2-methyl-4-[5-methyl-3-[4-(trifluoromethyl)phenyl]-1H-pyrazol-1-yl]-3(2H)-pyridazinone]
100%: pest or weed control at 1000 g/ha ([1]; post-emergence, Postemergence, 0 to 100 scale, 0 no effect, 100 complete control) | pest or weed control at 1000 g/ha ([1]; pre-emergence, Preemergence, 0 to 100 scale (0 no effect, 100 complete control)) | pest or weed control at 31 g/ha [3, 12] | pest or weed control at 62 g/ha ([3]; post-emergence, Postemergence) | pest or weed control at 125 g/ha ([3]; post-emergence, Postemergence) | pest or weed control at 250 g/ha ([3]; post-emergence, Postemergence) | pest or weed control at 31 g/ha [3, 13] | pest or weed control at 62 g/ha ([3]; pre-emergence, Preemergence) | pest or weed control at 125 g/ha ([3]; pre-emergence, Preemergence) | pest or weed control at 250 g/ha ([3]; pre-emergence, Preemergence) | pest or weed control at 125 g/ha [4, 15] | pest or weed control at 250 g/ha ([4]; Alopecurus myosuroides, post-emergence, Postemergence, 250 g ai/ha, scale 0 to 100, read-out: Plant response rating, Blackgrass) | pest or weed control at 31 g/ha ([4]; Alopecurus myosuroides, pre-emergence, Preemergence, 0 to 100 scale, 0 no effect, read-out: Plant response rating, Blackgrass) | pest or weed control at 62 g/ha [4, 16] | pest or weed control at 125 g/ha [4, 16] | pest or weed control at 250 g/ha [5, 17] | pest or weed control at 125 g/ha ([6]; post-emergence, Postemergence) | pest or weed control at 250 g/ha ([6]; post-emergence, Postemergence) | pest or weed control at 125 g/ha ([6]; pre-emergence, Preemergence) | pest or weed control at 250 g/ha ([6]; pre-emergence, Preemergence) | pest or weed control at 31 g/ha ([9]; Cynodon dactylon, post-emergence, Postemergence, scale 0 to 100, 0 no effect, read-out: Plant response rating, Bermudagrass) | pest or weed control at 62 g/ha [9, 19] | pest or weed control at 125 g/ha [9, 19] | pest or weed control at 250 g/ha ([9]; Cynodon dactylon, post-emergence, Postemergence, 250 g ai/ha, scale 0 to 100, read-out: Plant response rating, Bermudagrass) | pest or weed control at 31 g/ha ([9]; Cynodon dactylon, pre-emergence, Preemergence, 0 to 100 scale, 0 no effect, read-out: Plant response rating, Bermudagrass) | pest or weed control at 62 g/ha [9, 20] | pest or weed control at 125 g/ha [9, 20] | pest or weed control at 125 g/ha ([10]; pre-emergence, Preemergence) | pest or weed control at 250 g/ha ([10]; pre-emergence, Preemergence)
40%: pest or weed control at 31 g/ha [5, 13] | pest or weed control at 250 g/ha ([7]; post-emergence, Postemergence)
0%: pest or weed control at 31 g/ha [2, 12] | pest or weed control at 62 g/ha ([2]; post-emergence, Postemergence) | pest or weed control at 125 g/ha ([2]; post-emergence, Postemergence) | pest or weed control at 31 g/ha [2, 13] | pest or weed control at 62 g/ha ([2]; pre-emergence, Preemergence) | pest or weed control at 125 g/ha ([2]; pre-emergence, Preemergence) | pest or weed control at 31 g/ha ([7]; post-emergence, Postemergence, 31 g ai/ha, scale 0 to 100, 0 no effect, 100 complete control) | pest or weed control at 62 g/ha ([7]; post-emergence, Postemergence) | pest or weed control at 125 g/ha ([7]; post-emergence, Postemergence) | pest or weed control at 62 g/ha ([7]; pre-emergence, Preemergence) | pest or weed control at 125 g/ha ([7]; pre-emergence, Preemergence) | pest or weed control at 250 g/ha ([7]; pre-emergence, Preemergence) | plant injury at 31 g/ha (soybean (Glycine max); [12]) | plant injury at 31 g/ha (soybean (Glycine max); [13]) | plant injury at 250 g/ha (soybean (Glycine max); [18]) | pest or weed control at 31 g/ha ([11]; 31 g ai/ha, 0 to 100 scale, 0 no effect, 100 complete control) | pest or weed control at 62 g/ha ([11]; 62 g ai/ha, scale 0 to 100) | pest or weed control at 125 g/ha ([11]; 125 g ai/ha, scale 0 to 100)
95%: pest or weed control at 125 g/ha [5, 17] | pest or weed control at 250 g/ha ([5]; pre-emergence, Preemergence, scale 0 to 100 (0 no effect, 100 complete control)) | pest or weed control at 62 g/ha ([6]; pre-emergence, Preemergence) | plant injury at 250 g/ha ([8]; post-emergence, Postemergence) | plant injury at 250 g/ha ([8]; pre-emergence, Preemergence)
90%: pest or weed control at 62 g/ha [4, 15] | pest or weed control at 62 g/ha ([6]; post-emergence, Postemergence) | pest or weed control at 31 g/ha [6, 13] | plant injury at 62 g/ha ([8]; post-emergence, Postemergence) | plant injury at 125 g/ha ([8]; post-emergence, Postemergence) | plant injury at 125 g/ha ([8]; pre-emergence, Preemergence)
45%: plant injury at 31 g/ha [8, 12] | plant injury at 62 g/ha ([8]; pre-emergence, Preemergence)
80%: pest or weed control at 62 g/ha [5, 18] | pest or weed control at 125 g/ha [5, 18]
25%: plant injury at 62 g/ha (soybean (Glycine max); post-emergence, Postemergence, 62 g ai/ha, scale 0 to 100)
100: Blackgrass plant response rating [4, 14] | Bermudagrass plant response rating [9, 14]
35%: plant injury at 31 g/ha [8, 13]
50%: pest or weed control at 250 g/ha ([2]; post-emergence, Postemergence) | pest or weed control at 250 g/ha ([2]; pre-emergence, Preemergence) | pest or weed control at 125 g/ha ([10]; post-emergence, Postemergence) | pest or weed control at 31 g/ha [10, 13] | pest or weed control at 62 g/ha ([10]; pre-emergence, Preemergence) | plant injury at 125 g/ha (soybean (Glycine max); post-emergence, Postemergence, 125 g ai/ha, scale 0 to 100)
30%: pest or weed control at 31 g/ha [5, 12] | pest or weed control at 31 g/ha [10, 12] | pest or weed control at 62 g/ha ([10]; post-emergence, Postemergence)
60%: pest or weed control at 62 g/ha [5, 17] | pest or weed control at 31 g/ha [6, 12] | plant injury at 250 g/ha (soybean (Glycine max); [17]) | pest or weed control at 250 g/ha ([11]; 250 g ai/ha, scale 0 to 100)
20%: pest or weed control at 31 g/ha ([4]; Alopecurus myosuroides, post-emergence, Postemergence, scale 0 to 100, 0 no effect, read-out: Plant response rating, Blackgrass)
85%: pest or weed control at 250 g/ha ([10]; post-emergence, Postemergence)
